The values that follow come from patent US20060045864A1, “Preventing marine biofouling by inhibiting adhesive release from barnacles” (priority 2004, published 2006).

The test system of experiment [1] is barnacle cypris larvae. Kind of experiment: settling and metamorphosis of barnacle cypris larvae in Petri dish with filtered seawater. Format: in vivo, Balanus improvisus. The following applies: 20 cypris larvae in 5 ml filtered seawater; for inhibition of settling rate of barnacle cypris larvae, compared between substances and control: 1 μM and 10 μM, accumulative settling frequency over 10 days (FIG. 1). As for the experimental part: (§1) All the below described experiments are on the species Balanus improvisus.
In a Petri dish containing 5 ml of filtered seawater, 20 cypris larvae and a defined concentration of the different pharmacological agents. […] 20 barnacle cypris larvae were added into a Petri dish containing 5 ml filtered seawater and different concentration of haloperidole and SCH 23990. […] Instead 1 μM of SCH 23390 inhibits the settling rate almost completely. Typically, 0.01-1.0% of the dopamine antagonist effects the desired result, typically dissolved in ethanol and mixed with commercially available paints, such as VC 17 New Technology (solid paint) International Coatings (Akzo Nobel bv, Arnhem, NL), SPF (Self polishing, SPC) (Loutrec AB, Lidingo, Sweden), TF (combined solid/ablative) (Loutrec AB), Fabi Eco (ablative paint) International Coatings (Akzo Nobel bv).

Experiment [2] deals with release of barnacle adhesive. As to the kind of experiment: release of barnacle adhesive. Also on record: species or system Balanus improvisus. The following applies: in vivo.
Description: as §1
The release of the adhesive is governed by a G-protein coupled receptor and it is possible to stimulate release of the adhesive glands by adding dopamine. According to the same principle, it is possible to block the release of the adhesive proteins by using a dopamine antagonist that block the action of dopamine. […] The invention herein includes use of SCH23390, and salts and derivatives thereof, as well as other D1 or D5 receptor antagonists such as […], SCH 39166, SCH 233388 and the like or antagonists against other receptors with the same function.

As to `CN1CCc2cc(Cl)c(O)cc2[C@@H](c2ccccc2)C1` [SCH 23390, (R)-(+)-7-Chloro-8-hydroxy-3-methyl-1-phenyl-2,3,4,5-tetrahydro-1H-3-benzazepine], the “inhibition of settling rate of barnacle cypris larvae, compared between substances and control” value in experiment [1] is given as “effectively inhibits the settling rate”. The “effect on settlement rate of barnacle cypris larvae” value in experiment [1] (1 μM, accumulative settling over 10 days (FIG. 1)) is on record as “almost complete reducing effect”. The “inhibition of the release of barnacle adhesive” value in experiment [2] is given as “can inhibit the release of barnacle adhesive”.

`O=C(CCCN1CCC(O)(c2ccc(Cl)cc2)CC1)c1ccc(F)cc1` [haloperidol]: the “inhibition of settling rate of barnacle cypris larvae, compared between substances and control” value in experiment [1] is on record as “less effective”.
